Measured values reported in patent US10131652B2, “Pyrimidinyloxy benzene derivatives as herbicides” (E. I. DU PONT DE NEMOURS AND COMPANY, priority 2014, dated 2018).

Key:
Assay type in all cases: in vivo
[1] = test system: barnyardgrass (Echinochloa crus-galli); assay: Test B pre-/postemergence plant response
Outline: (§1)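 Evaluation is visual, about 10 days after application, rating injury from 0 (none) to 100 (complete control) relative to untreated controls. Application was a preemergence soil spray on seeded pots or a postemergence spray on one- to two-leaf plants.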

corn (Zea mays) = assay: Test B pre-/postemergence plant response
Outline: as §1

[2] = test system: giant foxtail (Setaria faberii); assay: Test B pre-/postemergence plant response
Outline: as §1

[3] = test system: pigweed (Amaranthus retroflexus); assay: Test B pre-/postemergence plant response
Outline: as §1

[4] = test system: wheat (Triticum aestivum); assay: Test B pre-/postemergence plant response
Outline: as §1

[5] = test system: barnyardgrass (Echinochloa crus-galli); assay: Test C flooded paddy test plant response; conditions: Flood, 250 g ai/ha; scale of 0 to 100 where 0 is no effect and 100 is complete control; 13 to 15 days
Outline: (§2)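 Greenhouse paddy assay, 13–15 days. Treatment into 3 cm floodwater over 2-leaf plants; visual 0–100 rating against controls.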

[6] = test system: ducksalad (Heteranthera limosa); assay: Test C flooded paddy test plant response; conditions: Flood, 250 g ai/ha; scale of 0 to 100 where 0 is no effect and 100 is complete control; 13 to 15 days
Outline: as §2

rice (Oryza sativa) = assay: Test C flooded paddy test plant response; conditions: Flood, 250 g ai/ha; scale of 0 to 100 where 0 is no effect and 100 is complete control; 13 to 15 days
Outline: as §2

[7] = test system: small-flower umbrella sedge (Cyperus difformis); assay: Test C flooded paddy test plant response; conditions: Flood, 250 g ai/ha; scale of 0 to 100 where 0 is no effect and 100 is complete control; 13 to 15 days
Outline: as §2

[8] = test system: johnsongrass (Sorghum halepense); assay: Test D pre-/postemergence plant response
From the text: (§3) Seeds of plant species selected from blackgrass (Alopecurus myosuroides), Italian ryegrass (Lolium multiflorum), winter wheat (Triticum aestivum), galium (catchweed bedstraw, Galium aparine), corn (Zea mays), large (Lg) crabgrass (Digitaria sanguinalis), giant foxtail (Setaria faberii), johnsongrass (Sorghum halepense), lambsquarters (Chenopodium album), morningglory (Ipomoea coccinea), yellow nutsedge (Cyperus esculentus), pigweed (Amaranthus retroflexus), ragweed (common ragweed, Ambrosia elatior), soybean (Glycine max), bamyardgrass (Echinochloa crus-galli), oilseed rape (Brassica napus), waterhemp (common waterhemp, Amaranthus rudis), and velvetleaf (Abutilon theophrasti) were planted into a blend of loam soil and sand and treated preemergence with test chemicals formulated in a non-phytotoxic solvent mixture which included a surfactant. At the same time, plants selected from these crop and weed species and also kochia (Kochia scoparia), wild oat (Avena fatua), and chickweed (common chickweed, Stellaria media) were planted in pots containing Redi-Earth® planting medium (Scotts Company, 14111 Scottslawn Road, Marysville, Ohio 43041) comprising spaghnum peat moss, vermiculite, wetting agent and starter nutrients and treated with postemergence applications of test chemicals formulated in the same manner. Plants ranged in height from 2 to 18 cm (1- to 4-leaf stage) for postemergence treatments. Treated plants and controls were maintained in a greenhouse for 13 to 15 days, after which time all species were compared to controls and visually evaluated. Plant response ratings, summarized in Table D, are based on a scale of 0 to 100 where 0 is no effect and 100 is complete control. A dash (-) response means no test result.

[9] = test system: lambsquarters (Chenopodium album); assay: Test D pre-/postemergence plant response
From the text: as §3

[10] = test system: morningglory (Ipomoea coccinea); assay: Test D pre-/postemergence plant response
From the text: as §3

soybean (Glycine max) = assay: Test D pre-/postemergence plant response
From the text: as §3

[11] = test system: velvetleaf (Abutilon theophrasti); assay: Test D pre-/postemergence plant response
From the text: as §3

[12] = test system: waterhemp (common waterhemp, Amaranthus rudis); assay: Test D pre-/postemergence plant response
From the text: as §3

[13] = test system: winter wheat (Triticum aestivum); assay: Test D pre-/postemergence plant response
From the text: as §3

[14] = 125 g ai/ha, postemergence, 0 to 100 scale, 0 no effect, 100 complete control
[15] = Postemergence, 500 g ai/ha, 0 to 100 scale (0 no effect, 100 complete control)
[16] = Preemergence, 125 g ai/ha, 0 to 100 scale where 0 is no effect and 100 is complete control
[17] = Preemergence, 500 g ai/ha, 0 to 100 scale where 0 is no effect and 100 is complete control
[18] = Postemergence, 16 g ai/ha, scale 0 to 100 (0 no effect, 100 complete control)
[19] = Postemergence, 31 g ai/ha, scale 0 to 100 (0 no effect, 100 complete control)
[20] = Postemergence, 62 g ai/ha, scale 0 to 100, 0 no effect, 100 complete control
[21] = Postemergence, 125 g ai/ha, scale 0 to 100, 0 no effect, 100 complete control
[22] = Preemergence, 16 g ai/ha, scale 0 to 100 (0 no effect, 100 complete control)
[23] = Preemergence, 31 g ai/ha, scale 0 to 100 (0 no effect, 100 complete control)
[24] = Preemergence, 62 g ai/ha, scale 0 to 100 (0 no effect, 100 complete control)

Cc1cc(-c2ccccc2Oc2ncc(Cl)cn2)no1 [Compound 60]
Plant response rating, Barnyardgrass [1, 14]: 50 | Plant response rating, Barnyardgrass [1, 15]: 100 | Plant response rating, Barnyardgrass [1, 16]: 80 | Plant response rating, Barnyardgrass [1, 17]: 100 | Plant response rating, Corn (corn (Zea mays); [14]): 30 | Plant response rating, Corn (corn (Zea mays); [15]): 90 | Plant response rating, Foxtail, Giant [2, 14]: 50 | Plant response rating, Foxtail, Giant [2, 15]: 100 | Plant response rating, Foxtail, Giant [2, 16]: 80 | Plant response rating, Foxtail, Giant [2, 17]: 100 | Plant response rating, Pigweed [3, 14]: 100 | Plant response rating, Pigweed [3, 15]: 100 | Plant response rating, Pigweed [3, 16]: 100 | Plant response rating, Pigweed [3, 17]: 100 | Plant response rating, Wheat [4, 14]: 30 | Plant response rating, Wheat [4, 15]: 90 | Barnyardgrass plant response rating [5]: 20 | Ducksalad plant response rating [6]: 80 | Rice plant response rating (rice (Oryza sativa)): 30 | Sedge, Umbrella plant response rating [7]: 50 | Johnsongrass plant response rating [8, 18]: 0 | Johnsongrass plant response rating [8, 19]: 0 | Plant response rating, Johnsongrass [8, 20]: 0 | Plant response rating, Johnsongrass [8, 21]: 5 | Plant response rating (scale 0 to 100), Johnsongrass ([8]; Preemergence, 125 g ai/ha): 45 | Plant response rating, Johnsongrass [8, 22]: 0 | Plant response rating, Johnsongrass [8, 23]: 0 | Plant response rating, Johnsongrass [8, 24]: 15 | Lambsquarters plant response rating [9, 18]: 20 | Lambsquarters plant response rating [9, 19]: 20 | Plant response rating, Lambsquarters [9, 20]: 55 | Plant response rating, Lambsquarters [9, 21]: 75 | Plant response rating (scale 0 to 100), Lambsquarters ([9]; Preemergence, 125 g ai/ha): 100 | Plant response rating, Lambsquarters [9, 22]: 10 | Plant response rating, Lambsquarters [9, 23]: 80 | Plant response rating, Lambsquarters [9, 24]: 85 | Morningglory plant response rating [10, 18]: 0 | Morningglory plant response rating [10, 19]: 40 | Plant response rating, Morningglory [10, 20]: 25 | Plant response rating, Morningglory [10, 21]: 40 | Plant response rating (scale 0 to 100), Morningglory ([10]; Preemergence, 125 g ai/ha): 20 | Plant response rating, Morningglory [10, 22]: 0 | Plant response rating, Morningglory [10, 23]: 0 | Plant response rating, Morningglory [10, 24]: 10 | Soybean plant response rating (soybean (Glycine max); [18]): 65 | Soybean plant response rating (soybean (Glycine max); [19]): 65 | Plant response rating, Soybean (soybean (Glycine max); [20]): 95 | Plant response rating, Soybean (soybean (Glycine max); [21]): 95 | Plant response rating (scale 0 to 100), Soybean (soybean (Glycine max); Preemergence, 125 g ai/ha): 95 | Plant response rating, Soybean (soybean (Glycine max); [22]): 35 | Plant response rating, Soybean (soybean (Glycine max); [23]): 55 | Plant response rating, Soybean (soybean (Glycine max); [24]): 65 | Velvetleaf plant response rating [11, 18]: 40 | Velvetleaf plant response rating [11, 19]: 50 | Plant response rating, Velvetleaf [11, 20]: 65 | Plant response rating, Velvetleaf [11, 21]: 80 | Plant response rating (scale 0 to 100), Velvetleaf ([11]; Preemergence, 125 g ai/ha): 100 | Plant response rating, Velvetleaf [11, 22]: 60 | Plant response rating, Velvetleaf [11, 23]: 100 | Plant response rating, Velvetleaf [11, 24]: 100 | Waterhemp plant response rating [12, 18]: 15 | Waterhemp plant response rating [12, 19]: 30 | Plant response rating, Waterhemp [12, 20]: 50 | Plant response rating, Waterhemp [12, 21]: 70 | Plant response rating (scale 0 to 100), Waterhemp ([12]; Preemergence, 125 g ai/ha): 100 | Plant response rating, Waterhemp [12, 22]: 80 | Plant response rating, Waterhemp [12, 23]: 100 | Plant response rating, Waterhemp [12, 24]: 100 | Wheat plant response rating [13, 18]: 0 | Wheat plant response rating [13, 19]: 5 | Plant response rating, Wheat [13, 20]: 5 | Plant response rating, Wheat [13, 21]: 20 | Plant response rating (scale 0 to 100), Wheat ([13]; Preemergence, 125 g ai/ha): 0 | Plant response rating, Wheat [13, 22]: 0 | Plant response rating, Wheat [13, 23]: 0 | Plant response rating, Wheat [13, 24]: 0
